# Test results taken from EP2316926B1, “Enantioselective production of alpha-hydroxy carbonyl compounds” (priority 2009, dated 2011).
# Values joined by “and” are separate entries in the source; they are usually repeats but may differ in a detail not shown here. Identical values can stand only once.
# T1: Gox1615 (Gluconobacter oxydans, UniProt Q5FQJ0)
# T1 sequence (Q5FQJ0 1-332): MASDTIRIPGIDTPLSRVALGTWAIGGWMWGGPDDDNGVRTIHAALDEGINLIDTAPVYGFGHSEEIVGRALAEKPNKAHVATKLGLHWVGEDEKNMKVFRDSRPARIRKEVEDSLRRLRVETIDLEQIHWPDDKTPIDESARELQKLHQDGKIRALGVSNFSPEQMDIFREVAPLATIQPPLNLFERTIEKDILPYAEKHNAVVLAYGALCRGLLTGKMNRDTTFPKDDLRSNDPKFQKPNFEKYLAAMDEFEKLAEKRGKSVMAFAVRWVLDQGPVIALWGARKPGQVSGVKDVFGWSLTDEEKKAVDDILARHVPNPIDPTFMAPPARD
# B1: Gox1615 (Gluconobacter oxydans 621H) (protein)
# chain: T1 sequence (Q5FQJ0 1-332)
# Experiments:
# [1] = biological target: T2, Gox0644 (Gluconobacter oxydans, UniProt Q5FT75); experiment: NADPH-dependent α-ketocarbonyl reductase activity assay (rate of decrease of NADPH at 340 nm); format: biochemical; details: for Gox0644 U/mg*: Table 3, 10 mM substrate, 40 mM K-phosphate buffer pH 7.0, 0.05 mM NAD(P)H, 30 °C, U/mg = µmol x min^-1 x mg protein^-1
# Description: Reactions were induced by addition of enzyme or substrate. One unit was defined as the amount of enzyme activity catalyzing the conversion of 1 µmol of pyridine nucleotide per min at 30 °C. NMR Analysis of Biotransformation Products: Biotransformations were extracted with equal volumes of CDCl3. and ^13C NMR spectra were recorded on a Bruker Avance 300 DPX spectrometer operating at 300 MHz for ^1H NMR and at 75 MHz for ^13C NMR, respectively.
# Reactions were induced by addition of enzyme or substrate. One unit of activity was defined as the amount of enzyme activity catalyzing the conversion of 1 µmol of pyridine nucleotide per min at 30 °C.
# The standard reaction mixture (1 ml) for the reduction reactions of substrates contained 10 mM substrate, 40 mM potassium phosphate buffer (K-phosphate buffer) pH 7.0, 0.05 mM NAD(P)H, and the enzyme unless otherwise noted. Reactions were induced by addition of enzyme or substrate. One unit of activity was defined as the amount of enzyme activity catalyzing the conversion of 1 µmol of pyridine nucleotide per min at 30 °C. […] Table 3: Enzymatic activities with α-diketones, α-ketoaldehydes and α-ketoesters
# [2] = biological target: T1, Gox1615; experiment: Kinetic constants from purified enzyme by Lineweaver-Burk plots; format: biochemical
# Description: (§1) Determination of pH and temperature optima and enzyme kinetics: The optimum pH for enzyme activities was determined by a modified method of Salusjärvi, T. et al., Appl. Microbiol. Biotechnol. 65:306-314 (2004) using the following buffer system (50 mM final concentration each): sodium acetate pH 4.5 - 6.5, potassium phosphate pH 6.5 - 8.0, Tris-HCl pH 8.0 - 10. Temperature optima for the biocatalysts were determined under standard reaction conditions at temperatures ranging from 20 - 80 °C. The Michaelis constant (Km) for the proteins was determined from purified enzyme by Lineweaver-Burk plots. Assays were performed at optimum pH for each enzyme and at 30 °C using the best substrate and a targeted substrate. The Km for each substrate was calculated using concentrations of 0.0025 to 10 mM, and the Km NAD(P)H and NAD(P) was calculated using concentrations of 0.01 to 0.5 mM
# (§2) 2.9 Kinetic parameters of the keto carbonyl reductases: Kinetic constants were determined from purified enzyme by Lineweaver-Burk plots. The Km and Vmax values for the substrates were calculated using concentrations of 0.025 to 10 mM. The optimal pH values and temperatures for enzyme activities are also shown in Tab. 8. Table 8: Summary of kinetic parameters
# [3] = biological target: T1, Gox1615; experiment: NADPH-dependent α-ketocarbonyl reductase activity assay (rate of decrease of NADPH at 340 nm); format: biochemical; details: for Gox1615 U/mg*: Table 3, 10 mM substrate, 40 mM K-phosphate buffer pH 7.0, 0.05 mM NAD(P)H, 30 °C, U/mg = µmol x min^-1 x mg protein^-1; for Specific Activity (U/mg)*: Table 5, cofactor NADPH, U/mg = µmol/mg·min
# Description: (§3) Measurement of enzyme activity: NADPH-dependent α-ketocarbonyl reductases were assayed by a routine method used for NAD(P)-linked enzymes by recording the rate of decrease of NADPH at 340 nm (ε = 6.22 mM^-1 x cm^-1)) with substrates at 30 °C. The reaction mixture (1 ml) for reduction of α-ketocarbonyl substrates contained 10 mM substrate, 40 mM potassium phosphate buffer pH 7.0, 0.025 mM NAD(P)H and the enzyme. Reactions were induced by addition of enzyme or substrate. One unit was defined as the amount of enzyme activity catalyzing the conversion of 1 µmol of pyridine nucleotide per min at 30 °C. NMR Analysis of Biotransformation Products: Biotransformations were extracted with equal volumes of CDCl3. and ^13C NMR spectra were recorded on a Bruker Avance 300 DPX spectrometer operating at 300 MHz for ^1H NMR and at 75 MHz for ^13C NMR, respectively. Spectra were processed using Bruker TonSpin 1.3 for Windows software and calibrated to the residual solvent peak of CDCl3 (δH = 7.26 / δC = 77.0).
# NADPH-dependent α-ketocarbonyl reductases were assayed by a routine method used for NAD(P)-linked enzymes by recording the rate of decrease of NADPH at 340 nm (ε = 6.22 mM^-1.cm^-1) with substrates at 30 °C. The reaction mixture (1 ml) for reduction of α-ketocarbonyl substrates contained 10 mM substrate, 40 mM potassium phosphate buffer pH 7.0, 0.025 mM NADPH, and the enzyme. Reactions were induced by addition of enzyme or substrate. One unit of activity was defined as the amount of enzyme activity catalyzing the conversion of 1 µmol of pyridine nucleotide per min at 30 °C.
# Purified NAD(P)-dependent oxidoreductases were assayed at 30 °C by a routine method used for NAD(P)-linked enzymes by recording the rate of decrease of NAD(P)H at 340 nm (ε = 6.22 mM^-1˙cm^-1) with substrates capable of reduction reactions. The standard reaction mixture (1 ml) for the reduction reactions of substrates contained 10 mM substrate, 40 mM potassium phosphate buffer (K-phosphate buffer) pH 7.0, 0.05 mM NAD(P)H, and the enzyme unless otherwise noted. Reactions were induced by addition of enzyme or substrate. One unit of activity was defined as the amount of enzyme activity catalyzing the conversion of 1 µmol of pyridine nucleotide per min at 30 °C. Measurement of the protein content was performed by the method of Bradford (Bradford M.M., Anal. Biochem. 72:248-254 (1976)). Table 3: Enzymatic activities with α-diketones, α-ketoaldehydes and α-ketoesters
# [4] = test system: CCC(=O)C(C)=O; experiment: Kinetic constants from purified enzyme by Lineweaver-Burk plots; format: biochemical, Gluconobacter oxydans; details: other: 40 mM KPB at optimal pH and 30 °C, substrate 0.025 to 10 mM
# Description: as §1, §2
# [5] = test system: O=CC(=O)c1ccccc1; experiment: as above; format: biochemical, Gluconobacter oxydans; details: other: 40 mM KPB at optimal pH and 30 °C, substrate 0.025 to 10 mM
# Description: as §1, §2
# [6] = biological target: T2, Gox0644; experiment: as above; format: biochemical
# Description: as §1, §2
# [7] = biological target: T2, Gox0644; experiment: Coupled-enzyme biotransformation with cofactor regeneration, product determined by NMR (regio- and stereoselectivity); format: biochemical
# Description: as §3
# Determination of the absolute configuration of the biotransformation product 2-hydroxy-pentan-3-one using chiral NMR shift solvents: Chiral NMR shift reagent (R,R)- and (S,S)-bis-α-methylbenzylamine-para-methyl (BMBA-p-Me) was prepared with small modifications according to the method reported by Kobayashi, Y et al., Tetrahedron Lett. 44: 7489-7491 (2003). In brief, the method of Marshall, J.A. and Mikowski, A. M., Org. Lett. 8:4375-4378 (2006) was used to synthesize 1,3-dibromo-2-methylpropane from 1,3-dihydroxy-2-methylpropane. Diisopropylethylamine (25.5 g), triphenylphosphine (20.1 g) and CBr4 (25.5 g) were sequentially added to a stirring solution of […] in 100 ml CH2Cl2 at 0 °C. The reaction was stirred for 3-4 h at 0 °C and concentrated under reduced pressure to give a green-brown oil. The oil was dissolved in diethyl ether and water (100 ml each) and the aqueous layer was extracted three times with diethyl ether. The organic extracts were combined and washed with water and brine, and dried over MgSO4. The reaction was concentrated under reduced pressure and applied to flash chromatography on silica 60 (230-400 mesh, 100% cyclohexane). Fractions containing the 1,3-dibromo-2-methylpropane product were combined (as judged by Si-TLC [100% cyclohexene]) and concentrated under reduced pressure resulting in a brown-yellow oil. The dibromopropane oil was used for the synthesis of (R,R)- and (S,S)-BMBA-p-Me as described by (Kobayashi, Y. et al., Org. Lett. 4(3):411-414 (2002). The crude oil was distilled by Kugelrohr at 240 °C to give crude BMPA-p-Me (yellow oil). BMBA-p-Me was purified by HPLC using a C18 column (Waters Xterra, 250 x 4.6 mm) at a flow rate of 0.8 ml min^-1 and a 40 min linear gradient of 50-100 % MeOH at ambient temperature. Fractions were concentrated under reduced pressure and BMBA-p-Me was identified by ^1H-NMR (colorless hygroscopic oil).
# Approximately 7.5 mg of the extracted product 2-hydroxy-pentan-3-one was added to 15 mg (R,R)- or (S,S)-BMBA-p-Me (dissolved in 200-300 µl CDCl3) and analyzed by ^13C NMR with the readout adjusted to 0.001 ppm/point (sw = 239 ppm, td = 512k) (Fiorentino, A. et al., Tetrahedron., 62:8952-8958 (2006)). The absolute configuration was determined based on the sign of ΔδRR-SS (δ(R,R)-BMBA-p-Me - δ(S,S)-BMBA-p-Me) for the α-carbons adjacent to the hydroxymethine unit as formulated in the following model shown in Scheme 3 (valid for saturated secondary alcohols of acyclic and cyclic compounds): [drawing 7]
# Cofactor regeneration: A prerequisite for the production of α-hydroxycarbonyl compounds is the regeneration of the expensive coenzymes and the stability of the protein catalysts. By coupling two coenzyme-dependent enzyme reactions, NADPH can be continuously regenerated. […]
# [8] = substrate: CCC(=O)C(C)=O; experiment: Kinetic constants from purified enzyme by Lineweaver-Burk plots; format: biochemical, Gluconobacter oxydans; details: other: 40 mM KPB at optimal pH and 30 °C, substrate 0.025 to 10 mM; remark: listed apart in the source
# Description: as §1, §2
# [9] = substrate: CCCC(=O)C(C)=O; experiment: as above; format: biochemical, Gluconobacter oxydans; details: other: 40 mM KPB at optimal pH and 30 °C, substrate 0.025 to 10 mM
# Description: as §1, §2
# [10] = substrate: O=CC(=O)c1ccccc1; experiment: as above; format: biochemical, Gluconobacter oxydans; details: other: 40 mM KPB at optimal pH and 30 °C, substrate 0.025 to 10 mM; remark: listed apart in the source
# Description: as §1, §2
# [11] = substrate: CC(=O)C=O; experiment: as above; format: biochemical, Gluconobacter oxydans; details: other: 40 mM KPB at optimal pH and 30 °C, substrate 0.025 to 10 mM
# Description: as §1, §2
molecule,measurement,setting,value
CC(=O)C=O [methylglyoxal],Gox0644 U/mg*,[1],3.4 U/mg
same,Vmax,[2],23 U/mg protein
same,Gox1615 U/mg*,[3],23.0 U/mg
same,Specific Activity (U/mg)*,[3],23.0 U/mg
Gox0644 (Gluconobacter oxydans 621H),Km,[4],5.7 mM
same,Vmax,[4],69.6 µmol/min x mg
same,Km,[5],4.8 mM
same,Vmax,[5],74.7 µmol/min x mg
O=CC(=O)c1ccccc1 [phenylglyoxal],Gox0644 U/mg*,[1],74.7 U/mg
same,Vmax,[6],75 U/mg protein
same,Gox1615 U/mg*,[3],19.1 U/mg
same,Specific Activity (U/mg)*,[3],19.1 U/mg
"CC(=O)C(=O)c1ccccc1 [1-phenyl-1,2-propanedione]",Gox0644 U/mg*,[1],75.4 U/mg
same,activity,[1]; substrates showing the highest activities,75 U/mg protein
same,Product (stereoselective reduction),[7]; NMR with chiral solvent BMBA-p-Me,1-phenyl-2R-hydroxy-propanone
same,Product (regioselective reduction),[7]; determined by NMR analysis,1-phenyl-2-hydroxy-propanone and 1-phenyl-2-hydroxy-1-propanone
same,Gox1615 U/mg*,[3],5.4 U/mg
same,Specific Activity (U/mg)*,[3],5.4 U/mg
B1,Km,[8],4.0 mM
same,Vmax,[8],7.0 µmol/min x mg
same,Km,[9],4.0 mM
same,Vmax,[9],7.0 U/mg protein
same,Km,[10],4.3 mM
same,Vmax,[10],23 U/mg protein
same,Km,[11],4.3 mM
same,Vmax,[11],23.0 µmol/min x mg
